Calls of active or inactive are those of the source. The calls are words filed in the database; no cut-off is given here.
What was measured:
IMR-32 [1] = assay: Neurotrophic activity in human IMR32 cells assessed as length of neurite outgrown after 96 hrs by bright field microscopic analysis; format: functional, cell-based
MCF7 = assay: Antiproliferative activity against human MCF7 cells; format: functional, cell-based
DU-145 = assay: Antiproliferative activity against human DU145 cells; format: functional, cell-based
A549 = assay: Antiproliferative activity against human A549 cells; format: functional, cell-based
HepG2 = assay: Antiproliferative activity against human HepG2 cells; format: functional, cell-based
IMR-32 [2] = assay: Cytotoxicity against human IMR32 cells after 48 hrs by SRB assay; format: cell-based; conditions: IMR-32, 48 h
IMR-32 [3] = assay: Neurotrophic activity in human IMR32 cells assessed as appearance of neurites at 1 to 10 uM after 96 hrs by bright field microscopic analysis; format: functional, cell-based
IMR-32 [4] = assay: Neurotrophic activity in human IMR32 cells assessed as increase in BDNF mRNA level at 10 uM by RT-PCR analysis; format: functional, cell-based
IMR-32 [5] = assay: Neurotrophic activity in human IMR32 cells assessed as increase in NGF mRNA level at 10 uM by RT-PCR analysis; format: functional, cell-based
IMR-32 [6] = assay: Neurotrophic activity in human IMR32 cells assessed as increase in BDNF protein level at 10 uM by Western blot method; format: functional, cell-based
IMR-32 [7] = assay: Neurotrophic activity in human IMR32 cells assessed as increase in NGF protein level at 10 uM by Western blot method; format: functional, cell-based
IMR-32 [8] = assay: Neurotrophic activity in human IMR32 cells assessed as induction of differentiation at 10 uM after 96 hrs by bright filed microscopic method; format: functional, cell-based
IMR-32 [9] = assay: Neurotrophic activity in human IMR32 cells assessed as induction of differentiation at 50 uM after 96 hrs by bright filed microscopic method; format: functional, cell-based
IMR-32 [10] = assay: Neurotrophic activity in human IMR32 cells assessed as induction of differentiation at 1 uM after 96 hrs by bright filed microscopic method; format: functional, cell-based

## CC(=O)N1c2cc([N+](=O)[O-])ccc2[C@H]2C=CC[C@H]2[C@H]1c1ccccc1
IMR-32 [1]
  Activity: Dose-dependent effect
MCF7
  Activity: inactive
DU-145
  Activity: inactive
A549
  Activity: inactive
HepG2
  Activity: inactive
IMR-32 [2]
  IC50: > 100 µM
IMR-32 [3]
  Activity: Active
IMR-32 [4]
  Activity: Active
IMR-32 [5]
  Activity: Active
IMR-32 [6]
  Activity: Active
IMR-32 [7]
  Activity: Active

## COC(=O)C[C@@H]1[C@H](C(=O)OC)c2ccccc2N(C(C)=O)[C@@H]1c1ccccc1
IMR-32 [1]
  Activity: Dose-dependent effect
MCF7
  Activity: inactive
DU-145
  Activity: inactive
A549
  Activity: inactive
HepG2
  Activity: inactive
IMR-32 [2]
  IC50: 80.6 µM
IMR-32 [4]
  Activity: Active
IMR-32 [5]
  Activity: Active
IMR-32 [6]
  Activity: Active
IMR-32 [7]
  Activity: Active
IMR-32 [8]
  Activity: Active
IMR-32 [9]
  Activity: Active

## Clc1ccc([C@H]2Nc3ccccc3[C@H]3C=CC[C@H]32)cc1
MCF7
  Activity: inactive
DU-145
  Activity: inactive
A549
  Activity: inactive
HepG2
  Activity: inactive
IMR-32 [2]
  IC50: > 100 µM
IMR-32 [3]
  Activity: inactive

## CC(=O)N1c2ccccc2[C@H]2[C@@H](O)[C@H](N=[N+]=[N-])C[C@H]2[C@H]1c1ccc(Cl)cc1
MCF7
  Activity: inactive
DU-145
  Activity: inactive
A549
  Activity: inactive
HepG2
  Activity: inactive
IMR-32 [2]
  IC50: > 100 µM
IMR-32 [3]
  Activity: inactive

## O[C@@H]1[C@@H]2c3ccccc3N[C@H](c3cccc(Br)c3)[C@@H]2C[C@@H]1O
IMR-32 [1]
  Activity: Dose-dependent effect
MCF7
  Activity: inactive
DU-145
  Activity: inactive
A549
  Activity: inactive
HepG2
  Activity: inactive
IMR-32 [2]
  IC50: > 100 µM
IMR-32 [3]
  Activity: Active
IMR-32 [4]
  Activity: Active
IMR-32 [5]
  Activity: Active
IMR-32 [6]
  Activity: Active
IMR-32 [7]
  Activity: Active
IMR-32 [8]
  Activity: Active

## Brc1ccc2c(c1)[C@H]1C=CC[C@H]1[C@@H](c1ccccc1)N2
MCF7
  Activity: inactive
DU-145
  Activity: inactive
A549
  Activity: inactive
HepG2
  Activity: inactive
IMR-32 [2]
  IC50: 94.4 µM
IMR-32 [3]
  Activity: inactive

## C1=C[C@@H]2c3ccccc3N[C@H](c3ccccc3)[C@@H]2C1
IMR-32 [1]
  Activity: Dose-dependent effect
MCF7
  Activity: inactive
DU-145
  Activity: inactive
A549
  Activity: inactive
HepG2
  Activity: inactive
IMR-32 [2]
  IC50: > 100 µM
IMR-32 [4]
  Activity: Active
IMR-32 [5]
  Activity: Active
IMR-32 [6]
  Activity: Active
IMR-32 [7]
  Activity: Active
IMR-32 [10]
  Activity: Active
IMR-32 [8]
  Activity: Active

## C=CCO[C@@H]1[C@@H]2c3ccccc3N(C(C)=O)[C@H](c3ccccc3)[C@@H]2C[C@H]1N=[N+]=[N-]
MCF7
  Activity: inactive
DU-145
  Activity: inactive
A549
  Activity: inactive
HepG2
  Activity: inactive
IMR-32 [2]
  IC50: 17.4 µM
IMR-32 [3]
  Activity: inactive

## CC(=O)N1c2ccccc2[C@@H]2[C@@H](C[C@@H]3O[C@H]23)[C@H]1c1cccc(Br)c1
MCF7
  Activity: inactive
DU-145
  Activity: inactive
A549
  Activity: inactive
HepG2
  Activity: inactive
IMR-32 [2]
  IC50: > 100 µM
IMR-32 [3]
  Activity: inactive

## C=CCO[C@@H]1[C@@H]2c3ccccc3N(C(C)=O)[C@H](c3ccc(Cl)cc3)[C@@H]2C[C@H]1N=[N+]=[N-]
MCF7
  Activity: inactive
DU-145
  Activity: inactive
A549
  Activity: inactive
HepG2
  Activity: inactive
IMR-32 [2]
  IC50: 66.5 µM
IMR-32 [3]
  Activity: inactive

## C=CCO[C@H]1C(n2cc(-c3ccccc3)nn2)C[C@@H]2[C@H]1c1ccccc1N(C(C)=O)[C@@H]2c1ccccc1 (single isomer, unassigned)
MCF7
  Activity: inactive
DU-145
  Activity: inactive
A549
  Activity: inactive
HepG2
  Activity: inactive
IMR-32 [2]
  IC50: 65 µM
IMR-32 [3]
  Activity: inactive

## O[C@@H]1[C@@H]2c3cc(Br)ccc3N[C@H](c3ccccc3)[C@@H]2C[C@@H]1O
MCF7
  Activity: inactive
DU-145
  Activity: inactive
A549
  Activity: inactive
HepG2
  Activity: inactive
IMR-32 [2]
  IC50: > 100 µM
IMR-32 [3]
  Activity: inactive

## CC(=O)N1c2ccccc2[C@H]2[C@@H](O)[C@H](N=[N+]=[N-])C[C@H]2[C@H]1c1ccccc1
IMR-32 [1]
  Activity: Dose-dependent effect
MCF7
  Activity: inactive
DU-145
  Activity: inactive
A549
  Activity: inactive
HepG2
  Activity: inactive
IMR-32 [2]
  IC50: > 100 µM
IMR-32 [4]
  Activity: Active
IMR-32 [5]
  Activity: Active
IMR-32 [6]
  Activity: Active
IMR-32 [7]
  Activity: Active
IMR-32 [8]
  Activity: Active

## CC(=O)N1c2ccccc2[C@H]2[C@@H](O)[C@H](N=[N+]=[N-])C[C@H]2[C@H]1c1cccc(Br)c1
MCF7
  Activity: inactive
DU-145
  Activity: inactive
A549
  Activity: inactive
HepG2
  Activity: inactive
IMR-32 [2]
  IC50: > 100 µM
IMR-32 [3]
  Activity: inactive

## C=CCO[C@@H]1[C@@H]2c3ccccc3N(C(C)=O)[C@H](c3cccc(Br)c3)[C@@H]2C[C@H]1N=[N+]=[N-]
MCF7
  Activity: inactive
DU-145
  Activity: inactive
A549
  Activity: inactive
HepG2
  Activity: inactive
IMR-32 [2]
  IC50: > 100 µM
IMR-32 [3]
  Activity: inactive

## Brc1cccc([C@H]2Nc3ccccc3[C@H]3C=CC[C@H]32)c1
MCF7
  Activity: inactive
DU-145
  Activity: inactive
A549
  Activity: inactive
HepG2
  Activity: inactive
IMR-32 [2]
  IC50: > 100 µM
IMR-32 [3]
  Activity: inactive

## O[C@@H]1[C@@H]2c3ccccc3N[C@H](c3ccccc3)[C@@H]2C[C@@H]1O
MCF7
  Activity: inactive
DU-145
  Activity: inactive
A549
  Activity: inactive
HepG2
  Activity: inactive
IMR-32 [2]
  IC50: > 100 µM
IMR-32 [3]
  Activity: inactive

## CC(=O)N1c2cc([N+](=O)[O-])ccc2[C@@H]2[C@@H](C[C@@H]3O[C@H]23)[C@H]1c1ccccc1
MCF7
  Activity: inactive
DU-145
  Activity: inactive
A549
  Activity: inactive
HepG2
  Activity: inactive
IMR-32 [2]
  IC50: 56 µM
IMR-32 [8]
  Activity: Active

## CC(=O)N1c2ccccc2[C@@H]2[C@@H](C[C@@H]3O[C@H]23)[C@H]1c1ccccc1
IMR-32 [1]
  Activity: Dose-dependent effect
MCF7
  Activity: inactive
DU-145
  Activity: inactive
A549
  Activity: inactive
HepG2
  Activity: inactive
IMR-32 [2]
  IC50: > 100 µM
IMR-32 [4]
  Activity: Active
IMR-32 [5]
  Activity: Active
IMR-32 [6]
  Activity: Active
IMR-32 [7]
  Activity: Active
IMR-32 [8]
  Activity: Active

## CC(=O)N1c2ccc(Br)cc2[C@H]2C=CC[C@H]2[C@H]1c1ccccc1
MCF7
  Activity: inactive
DU-145
  Activity: inactive
A549
  Activity: inactive
HepG2
  Activity: inactive
IMR-32 [2]
  IC50: 89.9 µM
IMR-32 [3]
  Activity: inactive

## Cc1ccccc1[C@H]1Nc2ccccc2[C@H]2[C@@H](O)[C@@H](O)C[C@H]21
MCF7
  Activity: inactive
DU-145
  Activity: inactive
A549
  Activity: inactive
HepG2
  Activity: inactive
IMR-32 [2]
  IC50: > 100 µM
IMR-32 [3]
  Activity: inactive
